Measured values: patent publication US8802700B2 (Vertex Pharmaceuticals Incorporated, priority 2010, dated 2014)

The molecules below were run against T1, ΔF508-CFTR (Homo sapiens, UniProt P13569, DEL508-508) (assay: Membrane potential optical assay (FRET voltage-sensor dyes, VIPR), identification of potentiator compounds). Details: Table 3; assay not given.
T1 construct: expressed in transfected cells
Format: cell-based
Description: The optical membrane potential assay utilized voltage-sensitive FRET sensors described by Gonzalez and Tsien (See Gonzalez, J. E. and R. Y. Tsien (1995) “Voltage sensing by fluorescence resonance energy transfer in single cells” Biophys J 69(4): 1272-80, and Gonzalez, J. E. and R. Y. Tsien (1997) “Improved indicators of cell membrane potential that use fluorescence resonance energy transfer” Chem Biol 4(4): 269-77) in combination with instrumentation for measuring fluorescence changes such as the Voltage/Ion Probe Reader (VIPR) (See […]. Oades, et al. (1999) “Cell-based assays and instrumentation for screening ion-channel targets” Drug Discov Today 4(9): 431-439). These voltage sensitive assays are based on the change in fluorescence resonant energy transfer (FRET) between the membrane-soluble, voltage-sensitive dye, DiSBAC2(3), and a fluorescent phospholipid, CC2-DMPE, which is attached to the outer leaflet of the plasma membrane and acts as a FRET donor. Changes in membrane potential (Vm) cause the negatively charged DiSBAC2(3) to redistribute across the plasma membrane and the amount of energy transfer from CC2-DMPE changes accordingly. The changes in fluorescence emission were monitored using VIPRTM II, which is an integrated liquid handler and fluorescent detector designed to conduct cell-based screens in 96- or 384-well microtiter plates. To identify potentiators of ΔF508-CFTR, a double-addition HTS assay format was developed. During the first addition, a Cl^--free medium with or without test compound was added to each well. […] (in mM) NaCl 160, KCl 4.5, CaCl2 2, MgCl2 1, HEPES 10, pH 7.4 with NaOH. • Chloride-free bath solution: Chloride salts in Bath Solution #1 are substituted with gluconate salts. • CC2-DMPE: Prepared as a 10 mM stock solution in DMSO and stored at -20° C. • DiSBAC2(3): Prepared as a 10 mM stock in DMSO and stored at -20° C. NIH3T3 mouse fibroblasts stably expressing ΔF508-CFTR are used for optical measurements of membrane potential. […] For all optical assays, the cells were seeded at 30,000/well in 384-well matrigel-coated plates and cultured for 2 hrs at 37° C. before culturing at 27° C. for 24 hrs. for the potentiator assay.

T1 sequence (P13569 with tags, fused parts or gaps DEL508-508): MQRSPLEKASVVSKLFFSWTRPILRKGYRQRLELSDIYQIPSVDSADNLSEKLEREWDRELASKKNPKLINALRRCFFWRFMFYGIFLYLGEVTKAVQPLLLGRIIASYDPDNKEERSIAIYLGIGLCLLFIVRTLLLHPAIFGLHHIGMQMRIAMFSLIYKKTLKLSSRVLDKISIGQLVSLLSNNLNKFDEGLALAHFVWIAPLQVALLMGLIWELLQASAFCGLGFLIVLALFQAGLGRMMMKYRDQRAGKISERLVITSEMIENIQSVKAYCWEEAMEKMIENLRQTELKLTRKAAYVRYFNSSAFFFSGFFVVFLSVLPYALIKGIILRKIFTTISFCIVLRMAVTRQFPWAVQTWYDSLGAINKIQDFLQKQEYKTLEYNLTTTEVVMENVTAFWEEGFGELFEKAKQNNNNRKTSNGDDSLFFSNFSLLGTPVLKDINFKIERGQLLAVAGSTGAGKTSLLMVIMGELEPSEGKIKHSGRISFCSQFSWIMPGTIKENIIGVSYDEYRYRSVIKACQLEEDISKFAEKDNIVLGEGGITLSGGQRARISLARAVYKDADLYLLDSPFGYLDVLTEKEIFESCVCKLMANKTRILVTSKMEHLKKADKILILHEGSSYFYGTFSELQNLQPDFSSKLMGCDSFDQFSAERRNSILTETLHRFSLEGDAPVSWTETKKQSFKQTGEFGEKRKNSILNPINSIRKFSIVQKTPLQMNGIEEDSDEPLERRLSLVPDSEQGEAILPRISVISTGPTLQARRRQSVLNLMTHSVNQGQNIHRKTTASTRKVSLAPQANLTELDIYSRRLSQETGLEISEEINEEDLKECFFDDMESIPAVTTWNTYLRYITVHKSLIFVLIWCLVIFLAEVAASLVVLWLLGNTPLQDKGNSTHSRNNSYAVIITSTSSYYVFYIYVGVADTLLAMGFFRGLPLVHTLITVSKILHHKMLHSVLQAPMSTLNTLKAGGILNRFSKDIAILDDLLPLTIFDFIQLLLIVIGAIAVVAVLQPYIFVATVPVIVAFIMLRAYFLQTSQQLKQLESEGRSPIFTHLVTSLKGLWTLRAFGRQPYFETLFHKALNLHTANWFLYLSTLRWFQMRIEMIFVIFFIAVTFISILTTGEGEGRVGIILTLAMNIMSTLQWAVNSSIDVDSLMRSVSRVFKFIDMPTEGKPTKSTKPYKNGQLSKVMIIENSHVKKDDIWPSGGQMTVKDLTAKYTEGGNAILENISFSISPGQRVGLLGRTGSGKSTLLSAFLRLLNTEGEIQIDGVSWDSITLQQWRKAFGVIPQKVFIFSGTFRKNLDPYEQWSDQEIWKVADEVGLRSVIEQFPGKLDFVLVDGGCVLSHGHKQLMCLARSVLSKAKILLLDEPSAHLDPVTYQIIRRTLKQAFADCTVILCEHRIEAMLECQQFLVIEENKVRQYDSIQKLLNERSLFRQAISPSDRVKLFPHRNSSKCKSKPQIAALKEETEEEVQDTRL

EC50 [µM]	SMILES
< 10	O=C(Nc1ccccc1-c1cc(F)cc(F)c1)c1c[nH]c2ccccc2c1=O [Compound 138, N-[2-(3,5-difluorophenyl)phenyl]-4-oxo-1H-quinoline-3-carboxamide]
< 10	COc1ccccc1-c1cc2cc[nH]c2cc1NC(=O)c1c[nH]c2ccccc2c1=O [Compound 237, N-[5-(2-methoxyphenyl)-1H-indol-6-yl]-4-oxo-1H-quinoline-3-carboxamide]
< 10	CC(C)c1ccc(NC(=O)c2c[nH]c3ccccc3c2=O)cc1 [Compound 425, N-(4-isopropylphenyl)-4-oxo-1H-quinoline-3-carboxamide]
< 10	C[C@@H]1CCCN1c1ccc(NC(=O)c2c[nH]c3ccccc3c2=O)c(C(F)(F)F)c1 [Compound 572, (R)-N-(4-(2-methylpyrrolidin-1-yl)-2-(trifluoromethyl)phenyl)-4-oxo-1,4-dihydroquinoline-3-carboxamide]

Same assay, conditions: Table 3; assay not given; read-out: % Activity (% Efficacy, relative efficacy)

Emax [%]	SMILES
25 to 100	CC(C)c1ccc(-c2ccccc2NC(=O)c2c[nH]c3ccccc3c2=O)cc1 [Compound 432, N-[2-(4-isopropylphenyl)phenyl]-4-oxo-1H-quinoline-3-carboxamide]
25 to 100	O=C(Nc1cccc2cc[nH]c12)c1c[nH]c2ccccc2c1=O [Compound 37, N-(1H-indol-7-yl)-4-oxo-1H-quinoline-3-carboxamide]
25 to 100	CC(C)(C)c1cc(C(C)(C)C)c(NC(=O)c2c[nH]c3ccc(O)cc3c2=O)cc1O [Compound 702, 6-hydroxy-N-(5-hydroxy-2,4-ditert-butyl-phenyl)-4-oxo-1H-quinoline-3-carboxamide]
25 to 100	O=C(Nc1cccnc1Oc1ccc(F)cc1)c1c[nH]c2ccccc2c1=O [Compound 147, N-[2-(4-fluorophenoxy)-3-pyridyl]-4-oxo-1H-quinoline-3-carboxamide]
< 25	O=C(Nc1ccc(S(=O)(=O)Nc2ccccn2)cc1)c1c[nH]c2ccccc2c1=O [Compound 21, 4-oxo-N-[4-(2-pyridylsulfamoyl)phenyl]-1H-quinoline-3-carboxamide]
25 to 100	Cc1ccc2[nH]cc(C(=O)Nc3ccc(N4[C@H](C)CC[C@H]4C)cc3C(F)(F)F)c(=O)c2c1 [Compound 569, N-(4-((2R,5R)-2,5-dimethylpyrrolidin-1-yl)-2-(trifluoromethyl)phenyl)-6-methyl-4-oxo-1,4-dihydroquinoline-3-carboxamide]
25 to 100	Cc1ccc(C(F)(F)F)cc1NC(=O)c1c[nH]c2ccc(F)cc2c1=O [Compound 678, 6-fluoro-N-[2-methyl-5-(trifluoromethyl)phenyl]-4-oxo-1H-quinoline-3-carboxamide]
25 to 100	O=C(Nc1ccccc1-c1ccccc1OC(F)(F)F)c1c[nH]c2ccccc2c1=O [Compound 156, 4-oxo-N-[2-[2-(trifluoromethoxy)phenyl]phenyl]-1H-quinoline-3-carboxamide]
25 to 100	CC(C)(C)c1c[nH]c2cc(NC(=O)c3c[nH]c4ccc(F)cc4c3=O)ccc12 [Compound 554, 6-fluoro-4-oxo-N-(3-tert-butyl-1H-indol-6-yl)-1H-quinoline-3-carboxamide]
25 to 100	O=C(Nc1ccccc1-c1cc(F)cc(F)c1)c1c[nH]c2ccccc2c1=O [Compound 138, N-[2-(3,5-difluorophenyl)phenyl]-4-oxo-1H-quinoline-3-carboxamide]
25 to 100	CCOc1ccccc1-c1ccc(CNC(=O)OC(C)(C)C)cc1NC(=O)c1c[nH]c2ccccc2c1=O [Compound 304, {2′-Ethoxy-2-[(4-oxo-1,4-dihydroquinoline-3-carbonyl)-amino]-biphenyl-4-ylmethyl}-carbamic acid tert-butyl ester]
25 to 100	O=C(Nc1ccccc1OCc1ccccc1)c1c[nH]c2ccccc2c1=O [Compound 240, N-(2-benzyloxyphenyl)-4-oxo-1H-quinoline-3-carboxamide]
25 to 100	CCCc1ccc(NC(=O)c2c[nH]c3ccccc3c2=O)cc1N [Compound 160, N-(3-amino-4-propyl-phenyl)-4-oxo-1H-quinoline-3-carboxamide]
< 25	O=C(Nc1ccccc1CCO)c1c[nH]c2ccccc2c1=O [Compound 40, N-[2-(2-hydroxyethyl)phenyl]-4-oxo-1H-quinoline-3-carboxamide]
25 to 100	CCCOc1ccc(N)cc1NC(=O)c1c[nH]c2ccccc2c1=O [Compound 17, N-(5-Amino-2-propoxy-phenyl)-4-oxo-1H-quinoline-3-carboxamide]
25 to 100	O=C(Nc1ccc(N2CCCC2)cc1C(F)(F)F)c1c[nH]c2ccccc2c1=O [Compound 658, 4-oxo-N-[4-pyrrolidin-1-yl-2-(trifluoromethyl)phenyl]-1H-quinoline-3-carboxamide]
25 to 100	COC(=O)c1cc(NC(=O)c2c[nH]c3ccccc3c2=O)ccc1C(C)(C)C [Compound 444, 5-[(4-oxo-1H-quinolin-3-yl)carbonylamino]-2-tert-butyl-benzoic acid methyl ester]
25 to 100	Cc1ccc2c(=O)c(C(=O)Nc3cc(O)c(C4(C)CCCCC4)cc3F)c[nH]c2c1 [Compound 499, N-[2-fluoro-5-hydroxy-4-(1-methylcyclohexyl)-phenyl]-7-methyl-4-oxo-1H-quinoline-3-carboxamide]

Emax [%]	SMILES
25 to 100	Cc1ccc(NC(=O)c2c[nH]c3ccccc3c2=O)c(F)c1 [Compound 289, N-(2-fluoro-4-methyl-phenyl)-4-oxo-1H-quinoline-3-carboxamide]
25 to 100	CC(C)(C)OC(=O)[C@@H]1CCCN1c1ccc(NC(=O)c2c[nH]c3ccccc3c2=O)c(C(F)(F)F)c1 [Compound 629, (S)-tert-butyl 1-(4-(4-oxo-1,4-dihydroquinoline-3-carboxamido)-3-(trifluoromethyl)phenyl)pyrrolidine-2-carboxylate]
25 to 100	CC(C)c1ccc(NC(=O)c2c[nH]c3c(F)cccc3c2=O)c(C(F)(F)F)c1 [Compound 573, 8-fluoro-N-[4-isopropyl-2-(trifluoromethyl)phenyl]-4-oxo-1H-quinoline-3-carboxamide]
25 to 100	Cc1cccc2[nH]cc(C(=O)Nc3cc(O)c(C4(C)CCCCC4)cc3F)c(=O)c12 [Compound 498, N-[2-fluoro-5-hydroxy-4-(1-methylcyclohexyl)-phenyl]-5-methyl-4-oxo-1H-quinoline-3-carboxamide]
25 to 100	O=C(Nc1ccc(N2CCC(CO)CC2)cc1C(F)(F)F)c1c[nH]c2ccccc2c1=O [Compound 668, N-[4-[4-(hydroxymethyl)-1-piperidyl]-2-(trifluoromethyl)phenyl]-4-oxo-1H-quinoline-3-carboxamide]
25 to 100	O=C(Nc1ccc(C(O)(C(F)(F)F)C(F)(F)F)cc1)c1c[nH]c2ccccc2c1=O [Compound 150, 4-oxo-N-[4-[2,2,2-trifluoro-1-hydroxy-1-(trifluoromethyl)ethyl]phenyl]-1H-quinoline-3-carboxamide]
25 to 100	O=C(Nc1ccccc1-c1cc(F)ccc1F)c1c[nH]c2ccccc2c1=O [Compound 384, N-[2-(2,5-difluorophenyl)phenyl]-4-oxo-1H-quinoline-3-carboxamide]
25 to 100	CC(=O)N1CCc2ccc(NC(=O)c3c[nH]c4ccccc4c3=O)cc2C1 [Compound 303, N-(2-acetyl-1,2,3,4-tetrahydroisoquinolin-7-yl)-4-oxo-1H-quinoline-3-carboxamide]
25 to 100	O=C(Nc1ccc(Oc2ccccc2)cc1)c1c[nH]c2ccccc2c1=O [Compound 267, 4-oxo-N-(4-phenoxyphenyl)-1H-quinoline-3-carboxamide]
25 to 100	O=C(Nc1ccccc1Cl)c1c[nH]c2ccccc2c1=O [Compound 330, N-(2-chlorophenyl)-4-oxo-1H-quinoline-3-carboxamide]
25 to 100	COc1ccccc1-c1cc2cc[nH]c2cc1NC(=O)c1c[nH]c2ccccc2c1=O [Compound 237, N-[5-(2-methoxyphenyl)-1H-indol-6-yl]-4-oxo-1H-quinoline-3-carboxamide]
25 to 100	CC(C)c1ccc(NC(=O)c2c[nH]c3ccccc3c2=O)cc1 [Compound 425, N-(4-isopropylphenyl)-4-oxo-1H-quinoline-3-carboxamide]
25 to 100	C[C@@H]1CCCN1c1ccc(NC(=O)c2c[nH]c3ccccc3c2=O)c(C(F)(F)F)c1 [Compound 572, (R)-N-(4-(2-methylpyrrolidin-1-yl)-2-(trifluoromethyl)phenyl)-4-oxo-1,4-dihydroquinoline-3-carboxamide]
> 100	CC(C)(C)OC(=O)[C@H]1CCCN1c1ccc(NC(=O)c2c[nH]c3ccccc3c2=O)c(C(F)(F)F)c1 [Compound 540, (R)-tert-butyl 1-(4-(4-oxo-1,4-dihydroquinoline-3-carboxamido)-3-(trifluoromethyl)phenyl)pyrrolidine-2-carboxylate]
25 to 100	O=C(Nc1ccccc1-c1ccccc1C(F)(F)F)c1c[nH]c2ccccc2c1=O [Compound 11, 4-oxo-N-[2-[2-(trifluoromethyl)phenyl]phenyl]-1H-quinoline-3-carboxamide]
25 to 100	COc1c(C(=O)Nc2ccc(C(C)(C)C)c(O)c2)cnc2ccccc12 [Compound 415, N-(3-Hydroxy-4-tert-butyl-phenyl)-4-methoxy-quinoline-3-carboxamide]
> 100	CC(C)(C)c1ccc(NC(=O)c2c[nH]c3ccccc3c2=O)cc1CO [Compound 6, N-[3-(hydroxymethyl)-4-tert-butyl-phenyl]-4-oxo-1H-quinoline-3-carboxamide]
